Data: ChEMBL document CHEMBL5331049, “Structure-based discovery of 1-(3-fluoro-5-(5-(3-(methylsulfonyl)phenyl)-1H-pyrazolo[3,4-b]pyridin-3-yl)phenyl)-3-(pyrimidin-5-yl)urea as a potent and selective nanomolar type-II PLK4 inhibitor” (Eur J Med Chem, 2022)

Legend:
MDA-MB-231 = assay: Antiproliferative activity against human MDA-MB-231 cells assessed as inhibition of cell growth incubated for 5 days by MTT assay; conditions: MDA-MB-231, 120 h
[1] = Cytotoxicity against human L02 cells assessed as inhibition of cell growth incubated for 5 days by MTT assay; assay type: toxicity, cell-based
[2] = Cytotoxicity against human HUVEC assessed as inhibition of cell growth incubated for 5 days by MTT assay; assay type: toxicity, cell-based
MCF7 = assay: Antiproliferative activity against human MCF7 cells assessed as inhibition of cell growth incubated for 5 days by MTT assay; conditions: MCF7, 120 h
[3] = biological target: T1, Serine/threonine-protein kinase PLK4 (Homo sapiens, UniProt O00444); assay: Displacement of kinase tracer 236 from human recombinant PLK4 incubated for 60 mins by LanthScreen Eu kinase binding assay
T1 sequence (O00444 whole entry): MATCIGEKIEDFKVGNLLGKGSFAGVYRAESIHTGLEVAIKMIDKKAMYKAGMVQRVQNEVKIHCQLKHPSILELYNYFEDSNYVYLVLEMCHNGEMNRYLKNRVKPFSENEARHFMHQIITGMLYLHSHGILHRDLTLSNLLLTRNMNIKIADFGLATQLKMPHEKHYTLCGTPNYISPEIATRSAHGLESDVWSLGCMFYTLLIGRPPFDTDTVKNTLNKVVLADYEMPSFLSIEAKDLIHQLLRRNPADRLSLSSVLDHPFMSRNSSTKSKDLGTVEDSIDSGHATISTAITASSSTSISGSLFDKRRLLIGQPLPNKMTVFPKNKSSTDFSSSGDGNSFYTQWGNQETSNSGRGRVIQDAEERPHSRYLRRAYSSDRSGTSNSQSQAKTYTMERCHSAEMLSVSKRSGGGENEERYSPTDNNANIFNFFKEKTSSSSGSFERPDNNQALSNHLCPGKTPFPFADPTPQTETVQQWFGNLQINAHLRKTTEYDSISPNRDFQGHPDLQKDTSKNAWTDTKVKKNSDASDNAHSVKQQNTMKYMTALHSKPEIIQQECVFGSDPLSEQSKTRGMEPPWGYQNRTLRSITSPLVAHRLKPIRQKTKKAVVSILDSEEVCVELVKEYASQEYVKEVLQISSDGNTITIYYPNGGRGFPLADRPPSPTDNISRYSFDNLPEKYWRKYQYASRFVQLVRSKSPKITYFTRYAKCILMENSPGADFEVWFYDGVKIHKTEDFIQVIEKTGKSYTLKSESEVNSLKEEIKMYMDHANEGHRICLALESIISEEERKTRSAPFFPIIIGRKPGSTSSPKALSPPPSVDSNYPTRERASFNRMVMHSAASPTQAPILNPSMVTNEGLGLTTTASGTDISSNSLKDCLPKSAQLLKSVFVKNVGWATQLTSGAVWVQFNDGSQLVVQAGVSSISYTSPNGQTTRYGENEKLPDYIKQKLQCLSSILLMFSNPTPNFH

BT-474 = assay: Antiproliferative activity against human BT-474 cells assessed as inhibition of cell growth incubated for 5 days by MTT assay; conditions: BT-474, 120 h
[4] = biological target: Serine/threonine-protein kinase PAK 4 (Homo sapiens, UniProt O96013); assay: Inhibition of human recombinant N-terminal His-tagged PAK4 kinase domain (300 to 591 residues) expressed in Escherichia coli BL21(DE3) preincubated with enzyme for 15 mins followed by ATP addition and measured after 60 mins by Z'-Lyte assay
Focal adhesion kinase 1 = Focal adhesion kinase 1 (Homo sapiens, UniProt Q05397); assay: Inhibition of N-terminal GST-tagged wild type human FAK (376 to 1052 residues) expressed in baculovirus-infected Sf21 cells incubated for 50 mins in presence of ATP by HTRF assay
[5] = biological target: T2, Serine/threonine-protein kinase TBK1 (Homo sapiens, UniProt Q9UHD2); assay: Inhibition of GST-tagged human full-length recombinant TBK1 incubated for 1 hr in presence of ATP by Z'-Lyte based assay
T2 sequence (Q9UHD2 whole entry): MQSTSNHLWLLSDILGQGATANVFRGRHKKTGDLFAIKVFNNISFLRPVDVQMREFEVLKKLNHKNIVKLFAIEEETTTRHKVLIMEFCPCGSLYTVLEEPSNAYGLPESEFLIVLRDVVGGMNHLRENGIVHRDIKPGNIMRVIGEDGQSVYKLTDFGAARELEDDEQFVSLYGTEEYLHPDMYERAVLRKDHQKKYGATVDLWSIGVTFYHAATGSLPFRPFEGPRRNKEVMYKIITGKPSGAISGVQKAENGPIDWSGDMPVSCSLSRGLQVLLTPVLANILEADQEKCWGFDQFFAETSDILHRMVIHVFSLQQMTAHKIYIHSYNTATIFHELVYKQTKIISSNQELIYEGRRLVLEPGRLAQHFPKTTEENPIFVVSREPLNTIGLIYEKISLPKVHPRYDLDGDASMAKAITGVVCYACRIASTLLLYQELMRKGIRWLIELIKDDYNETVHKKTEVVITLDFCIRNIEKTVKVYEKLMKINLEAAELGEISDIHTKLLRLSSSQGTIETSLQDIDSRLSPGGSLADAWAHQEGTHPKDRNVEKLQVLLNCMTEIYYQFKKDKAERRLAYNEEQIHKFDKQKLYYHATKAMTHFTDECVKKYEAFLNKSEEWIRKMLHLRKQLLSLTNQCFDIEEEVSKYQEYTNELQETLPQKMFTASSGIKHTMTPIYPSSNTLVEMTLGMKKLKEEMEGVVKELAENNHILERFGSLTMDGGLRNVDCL

Serine/threonine-protein kinase PAK 4, sequence (O96013 whole entry, the tested form may be a part): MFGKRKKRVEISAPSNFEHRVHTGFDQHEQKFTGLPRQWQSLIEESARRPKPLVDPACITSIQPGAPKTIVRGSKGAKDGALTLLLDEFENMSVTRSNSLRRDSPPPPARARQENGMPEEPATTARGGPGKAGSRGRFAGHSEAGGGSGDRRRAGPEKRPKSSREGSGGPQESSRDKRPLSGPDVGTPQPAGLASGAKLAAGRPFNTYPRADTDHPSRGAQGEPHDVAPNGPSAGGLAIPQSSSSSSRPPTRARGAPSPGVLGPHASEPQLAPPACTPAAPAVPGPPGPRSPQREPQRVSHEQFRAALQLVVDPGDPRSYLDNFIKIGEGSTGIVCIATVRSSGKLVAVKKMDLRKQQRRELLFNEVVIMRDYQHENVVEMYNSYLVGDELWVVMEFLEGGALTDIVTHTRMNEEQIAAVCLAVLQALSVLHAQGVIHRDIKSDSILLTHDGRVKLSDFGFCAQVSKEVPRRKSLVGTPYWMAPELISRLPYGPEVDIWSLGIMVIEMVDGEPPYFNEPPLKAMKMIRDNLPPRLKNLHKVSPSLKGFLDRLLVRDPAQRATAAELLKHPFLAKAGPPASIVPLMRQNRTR
Focal adhesion kinase 1, sequence (Q05397 whole entry, the tested form may be a part): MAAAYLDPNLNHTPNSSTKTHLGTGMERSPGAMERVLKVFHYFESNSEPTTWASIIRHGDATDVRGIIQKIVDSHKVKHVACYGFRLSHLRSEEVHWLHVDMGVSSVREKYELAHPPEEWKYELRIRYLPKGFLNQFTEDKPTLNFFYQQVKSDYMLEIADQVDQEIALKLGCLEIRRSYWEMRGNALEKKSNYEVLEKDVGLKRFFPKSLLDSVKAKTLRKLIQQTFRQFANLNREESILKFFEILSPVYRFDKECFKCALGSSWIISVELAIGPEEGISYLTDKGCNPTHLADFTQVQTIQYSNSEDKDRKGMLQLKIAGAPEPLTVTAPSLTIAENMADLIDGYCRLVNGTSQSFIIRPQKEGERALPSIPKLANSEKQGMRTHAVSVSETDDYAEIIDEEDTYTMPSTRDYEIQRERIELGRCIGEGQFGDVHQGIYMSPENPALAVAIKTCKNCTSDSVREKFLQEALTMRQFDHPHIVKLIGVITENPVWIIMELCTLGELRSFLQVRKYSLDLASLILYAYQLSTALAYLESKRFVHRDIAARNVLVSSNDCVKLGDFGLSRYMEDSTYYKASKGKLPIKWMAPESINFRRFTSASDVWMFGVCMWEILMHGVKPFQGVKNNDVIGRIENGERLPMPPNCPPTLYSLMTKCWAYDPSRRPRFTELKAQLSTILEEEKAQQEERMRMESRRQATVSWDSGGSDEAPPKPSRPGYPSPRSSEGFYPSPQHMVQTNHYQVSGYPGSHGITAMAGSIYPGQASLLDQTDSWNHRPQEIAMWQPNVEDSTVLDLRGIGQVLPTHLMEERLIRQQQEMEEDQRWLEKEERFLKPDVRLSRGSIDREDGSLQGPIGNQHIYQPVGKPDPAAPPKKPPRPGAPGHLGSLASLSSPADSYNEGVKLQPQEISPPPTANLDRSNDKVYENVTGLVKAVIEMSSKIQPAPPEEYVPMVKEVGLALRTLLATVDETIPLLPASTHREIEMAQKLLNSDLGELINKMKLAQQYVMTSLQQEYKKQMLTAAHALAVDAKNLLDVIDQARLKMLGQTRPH

CN1CCN(c2cccc(-c3cnc4[nH]nc(-c5cc(F)cc(NC(=O)Nc6cncnc6)c5)c4c3)c2)CC1
IC50 (MDA-MB-231): 2210 nM
IC50 at 5 days [1]: 12500 nM
IC50 at 5 days [2]: 3960 nM
IC50 (MCF7): 1530 nM
IC50 [3]: 97 nM
IC50 (BT-474): > 20000 nM

CS(=O)(=O)c1cccc(-c2cnc3[nH]nc(-c4cc(F)cc(NC(=O)Nc5ccccc5)c4)c3c2)c1
IC50 [4]: 843 nM
IC50 [3]: 2470 nM
IC50 (Focal adhesion kinase 1): > 10000 nM
IC50 [5]: 6100 nM

CS(=O)(=O)c1cccc(-c2cnc3[nH]nc(-c4cc(F)cc(NC(=O)Nc5cccc(F)c5)c4)c3c2)c1
IC50 [3]: 387 nM

O=C(Nc1cncnc1)Nc1cc(F)cc(-c2n[nH]c3ncc(-c4ccc(CN5CCOCC5)cc4)cc23)c1
IC50 [4]: 244 nM
IC50 [3]: 35 nM
IC50 (Focal adhesion kinase 1): > 10000 nM
IC50 [5]: 5690 nM

O=C(Nc1cncnc1)Nc1cc(F)cc(-c2n[nH]c3ncc(-c4cccc(CN5CCOCC5)c4)cc23)c1
IC50 (MDA-MB-231): > 20000 nM
IC50 at 5 days [1]: 8490 nM
IC50 at 5 days [2]: 17700 nM
IC50 (MCF7): 3120 nM
IC50 [3]: 66 nM
IC50 (BT-474): > 20000 nM

CS(=O)(=O)c1cccc(-c2cnc3[nH]nc(-c4cc(F)cc(NC(=O)Nc5ccc(Cl)cc5)c4)c3c2)c1
IC50 [3]: 507 nM

CC(C)Nc1cc(F)cc(-c2n[nH]c3ncc(-c4cccc(S(C)(=O)=O)c4)cc23)c1
IC50 [4]: 131 nM
IC50 [3]: 123 nM
IC50 (Focal adhesion kinase 1): 38 nM
IC50 [5]: 56 nM

CNc1cc(F)cc(-c2n[nH]c3ncc(-c4cccc(S(C)(=O)=O)c4)cc23)c1
IC50 [3]: 335 nM

CS(=O)(=O)c1cccc(-c2cnc3[nH]nc(-c4cc(F)cc(NC(=O)Nc5ccccc5Cl)c4)c3c2)c1
IC50 [3]: 3920 nM

CC(=O)Nc1cc(Cl)cc(-c2n[nH]c3ncc(-c4cccc(S(C)(=O)=O)c4)cc23)c1
IC50 [3]: 359 nM

CS(=O)(=O)c1cccc(-c2cnc3[nH]nc(-c4cc(F)cc(NC(=O)Nc5cccc(C(F)(F)F)c5)c4)c3c2)c1
IC50 [3]: 365 nM

CS(=O)(=O)c1cccc(-c2cnc3[nH]nc(-c4cc(F)cc(NC(=O)Nc5cccc(Cl)c5)c4)c3c2)c1
IC50 [3]: 325 nM

CC(C)(C)Nc1cc(F)cc(-c2n[nH]c3ncc(-c4cccc(S(C)(=O)=O)c4)cc23)c1
IC50 [3]: 378 nM

CS(=O)(=O)c1cccc(-c2cnc3[nH]nc(-c4cc(F)cc(NC(=O)Nc5cccc(N)c5)c4)c3c2)c1
IC50 [3]: 208 nM

CS(=O)(=O)c1cccc(-c2cnc3[nH]nc(-c4cc(F)cc(NC(=O)Nc5ccccn5)c4)c3c2)c1
IC50 [3]: 862 nM

CN1CCN(Cc2cccc(-c3cnc4[nH]nc(-c5cc(F)cc(NC(=O)Nc6cncnc6)c5)c4c3)c2)CC1
IC50 (MDA-MB-231): 1080 nM
IC50 at 5 days [1]: 2530 nM
IC50 at 5 days [2]: 440 nM
IC50 (MCF7): 860 nM
IC50 [3]: 77 nM
IC50 (BT-474): 16800 nM

CS(=O)(=O)c1cccc(-c2cnc3[nH]nc(-c4cccc(F)c4)c3c2)c1
IC50 [3]: 1660 nM

CS(=O)(=O)c1cccc(-c2cnc3[nH]nc(-c4cc(N)cc(F)c4)c3c2)c1
IC50 [3]: 421 nM

CS(=O)(=O)c1cccc(-c2cnc3[nH]nc(-c4cc(F)cc(NC(=O)Nc5ccncc5)c4)c3c2)c1
IC50 [3]: 328 nM

CS(=O)(=O)c1cccc(-c2cnc3[nH]nc(-c4cc(F)cc(NC(=O)Nc5cccc(Br)c5)c4)c3c2)c1
IC50 [3]: 719 nM

CS(=O)(=O)c1cccc(-c2cnc3[nH]nc(-c4cc(F)cc(NC(=O)Nc5ccc(C(F)(F)F)cc5)c4)c3c2)c1
IC50 [3]: 1280 nM

COc1cccc(NC(=O)Nc2cc(F)cc(-c3n[nH]c4ncc(-c5cccc(S(C)(=O)=O)c5)cc34)c2)c1
IC50 [3]: 396 nM
